Converted amounts (≈) assume the structure as drawn.
Experiments:
[1] = Antimicrobial activity against Salmonella pullorum C7913 after 24 hrs by NCCLS-protocol based assay; type: functional, Salmonella enterica subsp. enterica serovar Pullorum; conditions: Salmonella enterica, C7913, 24 h
Pseudomonas aeruginosa [2] = assay: Bactericidal activity against Pseudomonas aeruginosa CICC 21625 clinical isolates incubated for 4 hrs followed by culture spread on agar plates and cultured overnight; type: functional; conditions: CICC 21625, 4 h, read-out: MBC>99.9
Pseudomonas aeruginosa [3] = assay: Bactericidal activity against Pseudomonas aeruginosa CICC 21630 clinical isolates incubated for 4 hrs followed by culture spread on agar plates and cultured overnight; type: functional; conditions: CICC 21630, 4 h, read-out: MBC>99.9
Pseudomonas aeruginosa [4] = assay: Bactericidal activity against Pseudomonas aeruginosa ATCC 27853 incubated for 4 hrs followed by culture spread on agar plates and cultured overnight; type: functional; conditions: ATCC 27853, 4 h, read-out: MBC>99.9
Klebsiella pneumoniae [5] = assay: Antimicrobial activity against Klebsiella pneumoniae after 24 hrs by NCCLS-protocol based assay; type: functional
Salmonella typhimurium [6] = assay: Bactericidal activity against Salmonella typhimurium C7731 incubated for 4 hrs followed by culture spread on agar plates and cultured overnight; type: functional, Salmonella enterica subsp. enterica serovar Typhimurium; conditions: Salmonella enterica, C7731, 4 h; read-out: MBC>99.9
Escherichia coli [7] = assay: Bactericidal activity against Escherichia coli ATCC 25922 incubated for 4 hrs followed by culture spread on agar plates and cultured overnight; type: functional; conditions: ATCC 25922, 4 h, read-out: MBC>99.9
Escherichia coli [8] = assay: Antimicrobial activity against Escherichia coli K99 after 24 hrs by NCCLS-protocol based assay; type: functional; conditions: K99, 24 h
Escherichia coli [9] = assay: Antimicrobial activity against Escherichia coli ATCC 25922 after 24 hrs by NCCLS-protocol based assay; type: functional; conditions: ATCC 25922, 24 h
Pseudomonas aeruginosa [10] = assay: Bactericidal activity against Pseudomonas aeruginosa 26305 clinical isolates incubated for 4 hrs followed by culture spread on agar plates and cultured overnight; type: functional; conditions: Pseudomonas aeruginosa, 26305, 4 h; read-out: MBC>99.9
Pseudomonas aeruginosa [11] = assay: Bactericidal activity against Pseudomonas aeruginosa PAO1 incubated for 4 hrs followed by culture spread on agar plates and cultured overnight; type: functional; conditions: PAO1, 4 h, read-out: MBC>99.9
Pseudomonas aeruginosa [12] = assay: Antimicrobial activity against Pseudomonas aeruginosa CICC 21630 clinical isolates after 24 hrs by NCCLS-protocol based assay; type: functional; conditions: CICC 21630, 24 h
Escherichia coli [13] = assay: Antimicrobial activity against Escherichia coli 078 after 24 hrs by NCCLS-protocol based assay; type: functional; conditions: Escherichia coli, 078, 24 h
Acinetobacter baumannii [14] = assay: Antimicrobial activity against Acinetobacter baumannii after 24 hrs by NCCLS-protocol based assay; type: functional
Pseudomonas aeruginosa [15] = assay: Antimicrobial activity against Pseudomonas aeruginosa 25349 clinical isolates after 24 hrs by NCCLS-protocol based assay; type: functional; conditions: Pseudomonas aeruginosa, 25349, 24 h
Escherichia coli [16] = assay: Bactericidal activity against Escherichia coli K88 incubated for 4 hrs followed by culture spread on agar plates and cultured overnight; type: functional; conditions: K88, 4 h, read-out: MBC>99.9
Acinetobacter baumannii [17] = assay: Bactericidal activity against Acinetobacter baumannii incubated for 4 hrs followed by culture spread on agar plates and cultured overnight; type: functional; conditions: read-out: MBC>99.9
Pseudomonas aeruginosa [18] = assay: Antimicrobial activity against Pseudomonas aeruginosa 26305 clinical isolates after 24 hrs by NCCLS-protocol based assay; type: functional; conditions: Pseudomonas aeruginosa, 26305, 24 h
Escherichia coli [19] = assay: Antimicrobial activity against Escherichia coli K88 after 24 hrs by NCCLS-protocol based assay; type: functional; conditions: K88, 24 h
Escherichia coli [20] = assay: Bactericidal activity against Escherichia coli 078 incubated for 4 hrs followed by culture spread on agar plates and cultured overnight; type: functional; conditions: Escherichia coli, 078, 4 h; read-out: MBC>99.9
Salmonella typhimurium [21] = assay: Bactericidal activity against Salmonella typhimurium ATCC 14028 incubated for 4 hrs followed by culture spread on agar plates and cultured overnight; type: functional, Salmonella enterica subsp. enterica serovar Typhimurium; conditions: Salmonella enterica, ATCC 14028, 4 h; read-out: MBC>99.9
Klebsiella pneumoniae [22] = assay: Bactericidal activity against Klebsiella pneumoniae incubated for 4 hrs followed by culture spread on agar plates and cultured overnight; type: functional; conditions: read-out: MBC>99.9
Pseudomonas aeruginosa [23] = assay: Antimicrobial activity against Pseudomonas aeruginosa CICC 21625 clinical isolates after 24 hrs by NCCLS-protocol based assay; type: functional; conditions: CICC 21625, 24 h
Pseudomonas aeruginosa [24] = assay: Bactericidal activity against Pseudomonas aeruginosa 25349 clinical isolates incubated for 4 hrs followed by culture spread on agar plates and cultured overnight; type: functional; conditions: Pseudomonas aeruginosa, 25349, 4 h; read-out: MBC>99.9
Escherichia coli [25] = assay: Antimicrobial activity against Escherichia coli UB1005 after 24 hrs by NCCLS-protocol based assay; type: functional; conditions: UB1005, 24 h
Pseudomonas aeruginosa [26] = assay: Antimicrobial activity against Pseudomonas aeruginosa ATCC 27853 after 24 hrs by NCCLS-protocol based assay; type: functional; conditions: ATCC 27853, 24 h
Salmonella typhimurium [27] = assay: Antimicrobial activity against Salmonella typhimurium ATCC 14028 after 24 hrs by NCCLS-protocol based assay; type: functional, Salmonella enterica subsp. enterica serovar Typhimurium; conditions: Salmonella enterica, ATCC 14028, 24 h
[28] = Bactericidal activity against Salmonella pullorum C7913 incubated for 4 hrs followed by culture spread on agar plates and cultured overnight; type: functional, Salmonella enterica subsp. enterica serovar Pullorum; conditions: Salmonella enterica, C7913, 4 h; read-out: MBC>99.9
Salmonella typhimurium [29] = assay: Antimicrobial activity against Salmonella typhimurium C7731 after 24 hrs by NCCLS-protocol based assay; type: functional, Salmonella enterica subsp. enterica serovar Typhimurium; conditions: Salmonella enterica, C7731, 24 h
Escherichia coli [30] = assay: Bactericidal activity against Escherichia coli UB1005 incubated for 4 hrs followed by culture spread on agar plates and cultured overnight; type: functional; conditions: UB1005, 4 h, read-out: MBC>99.9
Pseudomonas aeruginosa [31] = assay: Antimicrobial activity against Pseudomonas aeruginosa PAO1 after 24 hrs by NCCLS-protocol based assay; type: functional; conditions: PAO1, 24 h
Escherichia coli [32] = assay: Bactericidal activity against Escherichia coli K99 incubated for 4 hrs followed by culture spread on agar plates and cultured overnight; type: functional; conditions: K99, 4 h, read-out: MBC>99.9

Row | Molecule | MIC95 [1] [µM] | MBC (Pseudomonas aeruginosa [2]) [µM] | MBC (Pseudomonas aeruginosa [3]) [µM] | MBC (Pseudomonas aeruginosa [4]) [µM] | MIC95 (Klebsiella pneumoniae [5]) [µM] | MBC (Salmonella typhimurium [6]) [µM] | MBC (Escherichia coli [7]) [µM] | MIC95 (Escherichia coli [8]) [µM] | MIC95 (Escherichia coli [9]) [µM] | MBC (Pseudomonas aeruginosa [10]) [µM] | MBC (Pseudomonas aeruginosa [11]) [µM] | MIC95 (Pseudomonas aeruginosa [12]) [µM] | MIC95 (Escherichia coli [13]) [µM] | MIC95 (Acinetobacter baumannii [14]) [µM] | MIC95 (Pseudomonas aeruginosa [15]) [µM] | MBC (Escherichia coli [16]) [µM] | MBC (Acinetobacter baumannii [17]) [µM] | MIC95 (Pseudomonas aeruginosa [18]) [µM] | MIC95 (Escherichia coli [19]) [µM] | MBC (Escherichia coli [20]) [µM] | other results
1 | H-LKPLLKPLLKPLLKPLLKPL-NH2 | 4 | > 64 | 64 | 16 | 32 | 16 | 4 | 2 | 2 | 64 | > 64 | 32 | 4 | 4 | 32 | 2 | 4 | 32 | 2 | 8 | MBC (Salmonella typhimurium [21]): 16 µM; MBC (Klebsiella pneumoniae [22]): 64 µM; MIC95 (Pseudomonas aeruginosa [23]): > 64 µM; MBC (Pseudomonas aeruginosa [24]): 64 µM; MIC95 (Escherichia coli [25]): 2 µM; MIC95 (Pseudomonas aeruginosa [26]): 16 µM; MIC95 (Salmonella typhimurium [27]): 8 µM; MBC [28]: 8 µM; MIC95 (Salmonella typhimurium [29]): 16 µM; MBC (Escherichia coli [30]): 8 µM; MIC95 (Pseudomonas aeruginosa [31]): > 64 µM; MBC (Escherichia coli [32]): 4 µM
2 | H-VRPVVRPVVRPVVRPVVRPVVRPV-NH2 | 8 | > 64 | > 64 | > 64 | > 64 | 32 | > 64 | 16 | 64 | > 64 | > 64 | > 64 | 64 | 4 | > 64 | 8 | 4 | > 64 | 8 | > 64 | MBC (Salmonella typhimurium [21]): 32 µM; MBC (Klebsiella pneumoniae [22]): > 64 µM; MIC95 (Pseudomonas aeruginosa [23]): > 64 µM; MBC (Pseudomonas aeruginosa [24]): > 64 µM; MIC95 (Escherichia coli [25]): 32 µM; MIC95 (Pseudomonas aeruginosa [26]): > 64 µM; MIC95 (Salmonella typhimurium [27]): 16 µM; MBC [28]: 16 µM; MIC95 (Salmonella typhimurium [29]): 32 µM; MBC (Escherichia coli [30]): 32 µM; MIC95 (Pseudomonas aeruginosa [31]): > 64 µM; MBC (Escherichia coli [32]): 16 µM
3 | CN[C@H](CC(C)C)C(=O)N[C@H]1C(=O)N[C@@H](CC(N)=O)C(=O)N[C@H]2C(=O)N[C@H]3C(=O)N[C@H](C(=O)N[C@H](C(=O)O)c4cc(O)cc(O)c4-c4cc3ccc4O)[C@H](O)c3ccc(c(Cl)c3)Oc3cc2cc(c3O[C@@H]2O[C@H](CO)[C@@H](O)[C@H](O)[C@H]2O[C@H]2C[C@](C)(N)[C@H](O)[C@H](C)O2)Oc2ccc(cc2Cl)[C@H]1O [VANCOMYCIN] | 8 (≈ 11.6 µg/mL) | > 64 | 64 (≈ 92.8 µg/mL) | > 64 | 16 (≈ 23.2 µg/mL) | 16 (≈ 23.2 µg/mL) | 16 (≈ 23.2 µg/mL) | 4 (≈ 5.8 µg/mL) | 8 (≈ 11.6 µg/mL) | > 64 | 16 (≈ 23.2 µg/mL) | 32 (≈ 46.4 µg/mL) | 4 (≈ 5.8 µg/mL) | 2 (≈ 2.9 µg/mL) | 64 (≈ 92.8 µg/mL) | 4 (≈ 5.8 µg/mL) | 2 (≈ 2.9 µg/mL) | 64 (≈ 92.8 µg/mL) | 2 (≈ 2.9 µg/mL) | 4 (≈ 5.8 µg/mL) | MBC (Salmonella typhimurium [21]): 8 µM (≈ 11.6 µg/mL); MBC (Klebsiella pneumoniae [22]): 32 µM (≈ 46.4 µg/mL); MIC95 (Pseudomonas aeruginosa [23]): 64 µM (≈ 92.8 µg/mL); MBC (Pseudomonas aeruginosa [24]): > 64 µM; MIC95 (Escherichia coli [25]): 16 µM (≈ 23.2 µg/mL); MIC95 (Pseudomonas aeruginosa [26]): > 64 µM; MIC95 (Salmonella typhimurium [27]): 8 µM (≈ 11.6 µg/mL); MBC [28]: 8 µM (≈ 11.6 µg/mL); MIC95 (Salmonella typhimurium [29]): 8 µM (≈ 11.6 µg/mL); MBC (Escherichia coli [30]): 16 µM (≈ 23.2 µg/mL); MIC95 (Pseudomonas aeruginosa [31]): 8 µM (≈ 11.6 µg/mL); MBC (Escherichia coli [32]): 4 µM (≈ 5.8 µg/mL)
4 | H-LRPLLRPLLRPLLRPLLRPL-NH2 | 2 | 32 | 16 | 16 | 8 | 8 | 4 | 4 | 4 | 32 | 32 | 16 | 4 | 2 | 32 | 4 | 4 | 32 | 2 | 4 | MBC (Salmonella typhimurium [21]): 16 µM; MBC (Klebsiella pneumoniae [22]): 8 µM; MIC95 (Pseudomonas aeruginosa [23]): 32 µM; MBC (Pseudomonas aeruginosa [24]): 32 µM; MIC95 (Escherichia coli [25]): 4 µM; MIC95 (Pseudomonas aeruginosa [26]): 32 µM; MIC95 (Salmonella typhimurium [27]): 4 µM; MBC [28]: 4 µM; MIC95 (Salmonella typhimurium [29]): 4 µM; MBC (Escherichia coli [30]): 8 µM; MIC95 (Pseudomonas aeruginosa [31]): 32 µM; MBC (Escherichia coli [32]): 8 µM
